{"source": "patent US20230233500A1", "about": "“Gasdermin D (GSDMD) Succination for the Treatment of Inflammatory Disease” (University of Massachusetts, priority 2020, published 2023)", "key": {"human THP1": {"system": "human THP1", "test": "LPS-Nig induced cell death and LDH release in THP1 cells", "format": "cell-based", "conditions": "PMA-differentiated THP1, fumarate 25 μM; for LPS-Nig induced cell death: SYTOX Orange", "experimental": "FIGS. 6A-G. Fumarate inhibits pyroptosis in Human cells. (A-B) Representative images (A) and kinetic data (B) of SYTOX Orange and Hoechst-stained PMA-differentiated THP1 cells treated with LPS for 2 hours, DMSO (vehicle) or fumarate (25 μM) for 1 hour and nigericin (10 μM) for 6 hours. (C) LDH release from (A). (D-E) Kinetic cell death data of SYTOX Orange and Hoechst stained (D) or LDH assay of conditioned medium from primary CD14+ positive monocytes treated with LPS for 2 hours DMSO (vehicle) or fumarate (25 μM) for 1 hour and nigericin (10 μM) for 6 hours. (F) LC/MS quantification of fumarate in WT BMDMs treated with LPS for 2 hours, FHIN1 for 1 hour and nigericin for 1 hour. (G) Representative images of WT primary BMDMs stained with SYTOX Orange and Hoechst following treatment with LPS for 2 hours, DMSO (vehicle) or fumarate (25 μM) or FHIN1 (25 μM) for 1 hour and nigericin for a timecourse of 6 hours. A, B, D, G are representative of 3 independent experiments. C, E, F are pooled data from 3 independent experiments. ***, P<0.001, ****, P<0.00001 (Students t-test). Error bars show mean±SD (B, D) or SEM (C, E). Human kidney cell line HEK293T was cultured in Dulbecco's modified Eagle's medium supplemented with 10% (v/v) fetal bovine serum, 100 U/ml penicillin and 100 µg/ml streptomycin. Human peripheral blood monocyte cell line, THP1 cells were cultured in RPMI-1640 medium supplemented with 10% (v/v) fetal bovine serum, 100 U/ml penicillin and 100 µg/ml streptomycin. For isolation of BMDMs, tibias and femurs were removed from wild type and GsdmD^−/− mice and bone marrow was flushed with complete DMEM-medium. Cells were plated in medium containing 20% (v/v) conditioned medium of L929 mouse fibroblasts cultured for 7 days at 37° C. in a humidified atmosphere of 5% C02. Medium was replaced every 3 days. Cells were plated, treated and incubated in phenol red free medium. Following treatment medium was collected and assessed for LDH release using the CytoTox96 non-radioactive cytotoxicity assay (Promega) as per manufacturer's instructions. […]"}, "EAE in WT mice": {"system": "EAE in WT mice", "test": "Experimental autoimmune encephalomyelitis (EAE)", "format": "in vivo, mouse"}, "h.GSDMD": {"target": "T1, h.GSDMD (Homo sapiens, UniProt P57764)", "T1 sequence (P57764 1-484)": "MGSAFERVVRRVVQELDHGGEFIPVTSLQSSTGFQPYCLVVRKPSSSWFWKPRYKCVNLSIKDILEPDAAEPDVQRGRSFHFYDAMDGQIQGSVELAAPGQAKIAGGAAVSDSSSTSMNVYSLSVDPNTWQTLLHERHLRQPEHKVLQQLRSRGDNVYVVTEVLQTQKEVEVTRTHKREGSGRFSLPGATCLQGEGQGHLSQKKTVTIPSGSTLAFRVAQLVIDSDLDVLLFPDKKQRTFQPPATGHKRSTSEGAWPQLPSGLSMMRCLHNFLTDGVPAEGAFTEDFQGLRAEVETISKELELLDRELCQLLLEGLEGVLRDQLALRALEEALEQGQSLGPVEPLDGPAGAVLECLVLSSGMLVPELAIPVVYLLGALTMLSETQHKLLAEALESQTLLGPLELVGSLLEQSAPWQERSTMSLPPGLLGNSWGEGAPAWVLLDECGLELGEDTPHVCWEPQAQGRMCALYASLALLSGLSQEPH", "test": "In vitro succination reaction with LC-MS/MS peptide mapping", "format": "binding", "conditions": "recombinant h.GSDMD"}, "recombinant GSDMD": {"target": "T2, recombinant GSDMD (Homo sapiens, UniProt P57764)", "T2 sequence (P57764 1-484)": "T1 sequence (P57764 1-484)", "test": "MMF-Yne labelling of recombinant GSDMD competed by fumarate, intact MS", "format": "binding", "conditions": "1 μM GSDMD", "experimental": "FIGS. 11A-E. Fumarate binds to GSDMD. (A) Immunoblot analysis of MMF-Yne bound proteins using a streptavidin-IR dye. (B) Representative MS spectra of GSDMD identified in streptavidin pulldowns subjected to mass spec. (C-D) Immunoblot analysis (C) and densitometry analysis (D) of streptavidin-IR dye detecting MMF-Yne labelled recombinant GSDMD incubated with the indicated concentrations of fumarate and copper clicked using a biotin-azide. (E) Intact MS analysis of recombinant GSDMD (1 μM) incubated in a succination reaction with DMSO (vehicle) or fumarate (25 μM) for 2 hours. A-E Representative images from 2 independent experiments..\nIntact mass analysis of GSDMD protein was carried out using an Acquity UPLC (Waters Corporation, Milford, Mass.) coupled to a Synapt G2-Si (Waters) quadrupole time-of-flight mass spectrometer fitted with an electrospray ionization source. Liquid chromatography was carried out with a 3.0×50 mm(4 μm) MAbPac RP column (Thermo Scientific, Waltham, Mass.) using mobile phase A and B containing 0.1% (v/v) formic acid in water, and 0.1% (v/v) formic acid in acetonitrile, respectively. A total of 0.6 μg sample was injected and the protein eluted using a linear gradient of 10 to 70% B over 7.0 minutes at a flow rate of 0.3 ml/min. […]"}, "[1]": {"conditions": "flow cytometry, spinal cord and brain"}}, "note": "Entries after “also recorded” stand apart in the source; their conditions may differ. Counter-ions that a name gives are not always drawn.", "data": [{"smiles": "COC(=O)/C=C/C(=O)OC", "note": "[Fumarate, Dimethyl fumarate]", "values": [{"measurement": "LPS-Nig induced LDH release", "setting": "human THP1", "result": "blocked"}, {"measurement": "LPS-Nig induced cell death", "setting": "human THP1", "result": "blocked"}, {"measurement": "LPS-Nig induced cell death", "setting": "human THP1; listed as fumarate", "result": "inhibited cell death"}, {"measurement": "onset of EAE (clinical scores)", "setting": "EAE in WT mice; WT mice, fumarate daily after EAE induction", "result": "blocked"}, {"measurement": "Th1 (IFN-γ+) cells in the CNS", "setting": "EAE in WT mice; flow cytometry", "result": "reduced"}, {"measurement": "Th17 (IL-17A+) cells in the CNS", "setting": "EAE in WT mice; flow cytometry", "result": "reduced"}, {"measurement": "infiltration of CD4+ T-cells to the CNS", "setting": "EAE in WT mice; [1]", "result": "reduced infiltration"}, {"measurement": "infiltration of CD8+ T-cells to the CNS", "setting": "EAE in WT mice; [1]", "result": "reduced infiltration"}, {"measurement": "infiltration of myeloid cells to the CNS", "setting": "EAE in WT mice; [1]", "result": "reduced infiltration"}, {"measurement": "neuropathology", "setting": "EAE in WT mice; spinal cord sections", "result": "reduced"}, {"measurement": "demyelination", "setting": "EAE in WT mice; spinal cord sections, LFB", "result": "reduced"}, {"measurement": "GSDMD-N in CNS tissue", "setting": "EAE in WT mice; spinal cord, staining and immunoblot", "result": "reduced"}, {"measurement": "In vitro cysteine succination sites", "setting": "h.GSDMD", "result": "same cysteines"}, {"measurement": "In vitro cysteine succination sites", "setting": "h.GSDMD; listed as DMF", "result": "Cys309; also recorded: Cys467; also recorded: Cys56; also recorded: Cys191; also recorded: Cys268"}, {"measurement": "concentration at which maximum occupancy of GSDMD was achieved", "setting": "recombinant GSDMD", "result": 25, "unit": "µM"}]}]}
